Columns and labels:
Test in all cases: Microbial challenge testing in BPW
Assay type in all cases: cell-based
Burkholderia cepacia = tested on: Burkholderia cepacia
Procedure: (§1) The microorganisms used in challenge tests are given in Table 3, designated as either ATCC (American Type Culture Collection) or wild type. These wild type organisms were problematic organisms previously isolated from chemical products. In the description for each organism, the bacteria are indicated as either GN (Gram negative) or GP (Gram positive).
(§2) All of the microorganisms were grown in Tryptose Soy Broth (TSB), DIFCO™ available from Becton, Dickinson and Company, containing 1% dextrose. Aspergillus niger and Candida albicans were incubated at 22° C.±2° C. for at least 96 hours. All bacteria were incubated at 35° C.±2° C. in a humidified incubator for at least 96 hours.
(§3) The following procedure was followed to determine the amount of each challenge material (inoculum broth) required to produce a 10^8 cfu/mL challenge, which is equivalent to a final test-sample microbial concentration of 10^5 to 10^6 cfu (colony-forming units)/mL.
(§4) Using a sterile serological pipette, 1 mL of the growth from each TSB culture was transferred into tubes containing 9 mL phosphate buffer (pH 7.2) and mixed thoroughly. This process was repeated to make serial 1:10 dilutions. Then 0.1 mL of each sample and dilution was inoculated onto agar plates to produce the equivalent of a further 1:10 dilution. C. albicans and A. niger were inoculated onto SDA and bacteria were inoculated onto Plate Count Agar (PCA), DIFCO™ available from Becton, Dickinson and Company. The 0.1 mL aliquots were evenly distributed on the plates using the spread-plate technique. The spread-plate technique is performed by spreading the aliquot over the entire plate surface using a sterile spreading rod while rotating the plate with a rotary auto-plater. After the inoculum was absorbed completely, each plate was inverted and incubated (fungi at 22° C.±2° C. and bacteria at 35° C.±2° C.).
(§5) After incubation for at least 48 hours, colonies that had developed on the agar plates were counted and recorded with the corresponding dilution. If counting had to be delayed temporarily, plates were refrigerated, preferably no more than 24 hours, until they could be counted. The number of cfu/mL was determined by multiplying the count by the dilution factor for that particular plate.
(§6) Turbidity in Nepholemetric Turbidity Units (NTU) was measured for each serial dilution using the HF-Micro 100 Model Turbidimeter. For each microorganism, the plate counts were compared to the turbidity readings.
(§7) Control substrates (“broth alone”) were prepared for each microorganism separately in triplicate by adding 13.5 mL of BPW (pH 7.0) containing 1% (w/v) dextrose to each 20-mL glass tube; then adding 1.5 mL challenge material to produce a final concentration at time zero of 10^5 to 10^6 cfu/mL and a total volume of 15 mL.
(§8) Test sample substrates were prepared containing each test material (1,4-CHDM, etc) or combination of test materials at the concentrations shown in Tables 5 and 6. Sample substrates were prepared in triplicate, except those substrates containing PE or CG which were prepared in duplicate. Substrates were prepared by adding BPW containing 1% (w/v) dextrose to each 20-mL glass tube, then adding the test material in the amount appropriate to achieve the desired weight/volume percent (g/100 mL) and to obtain a total volume of BPW with dextrose and test material of 13.5 mL. Then 1.5 mL challenge material was added to produce a final concentration at time zero of 10^5 to 10^6 cfu/mL of the respective organism and a total test sample substrate volume of 15 mL.
(§9) After mixing, all challenged substrates were incubated at 35° C.±2° C. for 14 days and then at ambient room temperature.

Bacillus subtilis = tested on: Bacillus subtilis
Procedure: as §1, §2, §3, §4, §5, §6, §7, §8, §9

Proteus vulgaris = tested on: Proteus vulgaris
Procedure: as §1, §2, §3, §4, §5, §6, §7, §8, §9

Aeromonas sp. = tested on: Aeromonas sp.
Procedure: as §1, §2, §3, §4, §5, §6, §7, §8, §9

Escherichia coli = tested on: Escherichia coli
Procedure: as §1, §2, §3, §4, §5, §6, §7, §8, §9

[1] = tested on: Staphylococcus epidermidis
Procedure: as §1, §2, §3, §4, §5, §6, §7, §8, §9

OCC1CCCC(CO)C1 (stereo not shown) [1,3-CHDM]
Grade code B. cepacia (Burkholderia cepacia; 0.5%, 3 days incubation): 5 (More than 10,000 colonies estimated (thus >100,000 cfu/mL))
Grade code B. cepacia (Burkholderia cepacia; 0.5%, 14 days incubation): 5 (More than 10,000 colonies estimated (thus >100,000 cfu/mL))
Grade code B. cepacia (Burkholderia cepacia; 0.5%, 30 days incubation): 5 (More than 10,000 colonies estimated (thus >100,000 cfu/mL))
Grade code B. cepacia (Burkholderia cepacia; 1.25%, 3 days incubation): 4.7
Grade code B. cepacia (Burkholderia cepacia; 1.25%, 14 days incubation): 4.7
Grade code B. cepacia (Burkholderia cepacia; 1.25%, 30 days incubation): 4.7
Grade code B. cepacia (Burkholderia cepacia; 2.5%, 3 days incubation): 4 (1001 to 10,000 colonies (thus 10,000 cfu/mL to 100,000 cfu/mL))
Grade code B. cepacia (Burkholderia cepacia; 2.5%, 14 days incubation): 4 (1001 to 10,000 colonies (thus 10,000 cfu/mL to 100,000 cfu/mL))
Grade code B. cepacia (Burkholderia cepacia; 2.5%, 30 days incubation): 4 (1001 to 10,000 colonies (thus 10,000 cfu/mL to 100,000 cfu/mL))
Grade code B. subtilis (Bacillus subtilis; 0.5%, 3 days incubation): 4 (1001 to 10,000 colonies (thus 10,000 cfu/mL to 100,000 cfu/mL))
Grade code B. subtilis (Bacillus subtilis; 0.5%, 14 days incubation): 4 (1001 to 10,000 colonies (thus 10,000 cfu/mL to 100,000 cfu/mL))
Grade code B. subtilis (Bacillus subtilis; 0.5%, 30 days incubation): 4 (1001 to 10,000 colonies (thus 10,000 cfu/mL to 100,000 cfu/mL))
Grade code B. subtilis (Bacillus subtilis; 1.25%, 3 days incubation): 4 (1001 to 10,000 colonies (thus 10,000 cfu/mL to 100,000 cfu/mL))
Grade code B. subtilis (Bacillus subtilis; 1.25%, 14 days incubation): 4 (1001 to 10,000 colonies (thus 10,000 cfu/mL to 100,000 cfu/mL))
Grade code B. subtilis (Bacillus subtilis; 1.25%, 30 days incubation): 4 (1001 to 10,000 colonies (thus 10,000 cfu/mL to 100,000 cfu/mL))
Grade code B. subtilis (Bacillus subtilis; 2.5%, 3 days incubation): 4 (1001 to 10,000 colonies (thus 10,000 cfu/mL to 100,000 cfu/mL))
Grade code B. subtilis (Bacillus subtilis; 2.5%, 14 days incubation): 4 (1001 to 10,000 colonies (thus 10,000 cfu/mL to 100,000 cfu/mL))
Grade code B. subtilis (Bacillus subtilis; 2.5%, 30 days incubation): 4 (1001 to 10,000 colonies (thus 10,000 cfu/mL to 100,000 cfu/mL))
Grade code P. vulqaris (Proteus vulgaris; 0.5%, 3 days incubation): 5 (More than 10,000 colonies estimated (thus >100,000 cfu/mL))
Grade code P. vulqaris (Proteus vulgaris; 0.5%, 13 days incubation): 5 (More than 10,000 colonies estimated (thus >100,000 cfu/mL))
Grade code P. vulqaris (Proteus vulgaris; 0.5%, 30 days incubation): 5 (More than 10,000 colonies estimated (thus >100,000 cfu/mL))
Grade code P. vulqaris (Proteus vulgaris; 1.25%, 3 days incubation): 5 (More than 10,000 colonies estimated (thus >100,000 cfu/mL))
Grade code P. vulqaris (Proteus vulgaris; 1.25%, 13 days incubation): 4 (1001 to 10,000 colonies (thus 10,000 cfu/mL to 100,000 cfu/mL))
Grade code P. vulqaris (Proteus vulgaris; 1.25%, 30 days incubation): 4 (1001 to 10,000 colonies (thus 10,000 cfu/mL to 100,000 cfu/mL))
Grade code Aeromonas sp (Aeromonas sp.; 0.5%, 3 days incubation): 5 (More than 10,000 colonies estimated (thus >100,000 cfu/mL))
Grade code Aeromonas sp (Aeromonas sp.; 0.5%, 14 days incubation): 4 (1001 to 10,000 colonies (thus 10,000 cfu/mL to 100,000 cfu/mL))
Grade code Aeromonas sp (Aeromonas sp.; 0.5%, 30 days incubation): 4 (1001 to 10,000 colonies (thus 10,000 cfu/mL to 100,000 cfu/mL))
Grade code Aeromonas sp (Aeromonas sp.; 1.25%, 3 days incubation): 4 (1001 to 10,000 colonies (thus 10,000 cfu/mL to 100,000 cfu/mL))
Grade code Aeromonas sp (Aeromonas sp.; 1.25%, 14 days incubation): 4 (1001 to 10,000 colonies (thus 10,000 cfu/mL to 100,000 cfu/mL))
Grade code Aeromonas sp (Aeromonas sp.; 1.25%, 30 days incubation): 4 (1001 to 10,000 colonies (thus 10,000 cfu/mL to 100,000 cfu/mL))
Grade code E. coli (Escherichia coli; 0.5%, 3 days incubation): 5 (More than 10,000 colonies estimated (thus >100,000 cfu/mL))
Grade code E. coli (Escherichia coli; 0.5%, 14 days incubation): 5 (More than 10,000 colonies estimated (thus >100,000 cfu/mL))
Grade code E. coli (Escherichia coli; 0.5%, 30 days incubation): 5 (More than 10,000 colonies estimated (thus >100,000 cfu/mL))
Grade code E. coli (Escherichia coli; 1.25%, 3 days incubation): 5 (More than 10,000 colonies estimated (thus >100,000 cfu/mL))
Grade code E. coli (Escherichia coli; 1.25%, 14 days incubation): 4 (1001 to 10,000 colonies (thus 10,000 cfu/mL to 100,000 cfu/mL))
Grade code E. coli (Escherichia coli; 1.25%, 30 days incubation): 4 (1001 to 10,000 colonies (thus 10,000 cfu/mL to 100,000 cfu/mL))
Grade code E. coli (Escherichia coli; 2.5%, 3 days incubation): 5 (More than 10,000 colonies estimated (thus >100,000 cfu/mL))
Grade code E. coli (Escherichia coli; 2.5%, 14 days incubation): 4 (1001 to 10,000 colonies (thus 10,000 cfu/mL to 100,000 cfu/mL))
Grade code E. coli (Escherichia coli; 2.5%, 30 days incubation): 4 (1001 to 10,000 colonies (thus 10,000 cfu/mL to 100,000 cfu/mL))
Grade code S. epidermidis ([1]; 0.5%, 3 days incubation): 4 (1001 to 10,000 colonies (thus 10,000 cfu/mL to 100,000 cfu/mL))
Grade code S. epidermidis ([1]; 0.5%, 13 days incubation): 4 (1001 to 10,000 colonies (thus 10,000 cfu/mL to 100,000 cfu/mL))
Grade code S. epidermidis ([1]; 0.5%, 30 days incubation): 4 (1001 to 10,000 colonies (thus 10,000 cfu/mL to 100,000 cfu/mL))
Grade code S. epidermidis ([1]; 1.25%, 3 days incubation): 4 (1001 to 10,000 colonies (thus 10,000 cfu/mL to 100,000 cfu/mL))
Grade code S. epidermidis ([1]; 1.25%, 13 days incubation): 3.7
Grade code S. epidermidis ([1]; 1.25%, 30 days incubation): 4 (1001 to 10,000 colonies (thus 10,000 cfu/mL to 100,000 cfu/mL))
Grade code S. epidermidis ([1]; 2.5%, 3 days incubation): 4 (1001 to 10,000 colonies (thus 10,000 cfu/mL to 100,000 cfu/mL))

Reference: patent US20110028566A1, “COMPOSITIONS AND PRODUCTS CONTAINING CYCLOALIPHATIC DIOL ANTIMICROBIAL AGENTS AND METHODS OF USING THE COMPOSITIONS AND PRODUCTS” (EASTMAN CHEMICAL COMPANY, priority 2009, published 2011)
